Measured values from patent US20230111310A1, “CARBOXYLIC ACID DERIVATIVE-SUBSTITUTED IMINO ARYL COMPOUND, PREPARATION METHOD THEREFOR, HERBICIDAL COMPOSITION AND USE THEREOF” (Qingdao Kingagroot Chemical Compound Co., Ltd., priority 2020, published 2023).

tested on: Alopecurus japonicus; assay: Weeding effect in post-emergence stage; format: in vivo; details: Dose 15 g/ha; level of fresh weight growth control rate
In short: (§1)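 Weeds were treated post-emergence at 2-3 leaves with compound doses from 7.5 up to 500 g/ha, formulated in acetone–Tween 80 with methyl oleate synergist. Efficacy was assessed as growth control after 3 weeks.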

| Compound | Weeding effect in post-emergence stage, Alopecurus japonicus |
| --- | --- |
| C=CCCOC(=O)C(C)O/N=C/c1cc(-n2c(=O)cc(C(F)(F)F)n(C)c2=O)c(F)cc1Cl (racemic) [Compound 209] | 5 (Level 5: growth control rate is above 85%) |
| C#CCOC(=O)C(C)O/N=C/c1cc(-n2c(=O)cc(C(F)(F)F)n(C)c2=O)c(F)cc1Cl (racemic) [Compound 212] | 5 (Level 5: growth control rate is above 85%) |
| CC(O/N=C/c1cc(-n2c(=O)cc(C(F)(F)F)n(C)c2=O)c(F)cc1Cl)C(=O)OC1CCCC1 (racemic) [Compound 214] | 5 (Level 5: growth control rate is above 85%) |
| CC(O/N=C/c1cc(-n2c(=O)cc(C(F)(F)F)n(C)c2=O)c(F)cc1Cl)C(=O)OCCF (racemic) [Compound 216] | 4 (Level 4: growth control rate is greater than or equal to 60% and less than 85%) |
| CC(O/N=C/c1cc(-n2c(=O)cc(C(F)(F)F)n(C)c2=O)c(F)cc1Cl)C(=O)OCC(F)F (racemic) [Compound 217] | 5 (Level 5: growth control rate is above 85%) |
| CC(O/N=C/c1cc(-n2c(=O)cc(C(F)(F)F)n(C)c2=O)c(F)cc1Cl)C(=O)OCC(F)(F)F (racemic) [Compound 218] | 5 (Level 5: growth control rate is above 85%) |
| CC(O/N=C/c1cc(-n2c(=O)cc(C(F)(F)F)n(C)c2=O)c(F)cc1Cl)C(=O)OCC(C)(F)F (racemic) [Compound 220] | 5 (Level 5: growth control rate is above 85%) |

tested on: Abutilon theophrasti; assay: Weeding effect in post-emergence stage; format: in vivo; details: Dose 15 g/ha; level of fresh weight growth control rate
In short: as §1

| Compound | Weeding effect in post-emergence stage, Abutilon theophrasti |
| --- | --- |
| C=CCCOC(=O)C(C)O/N=C/c1cc(-n2c(=O)cc(C(F)(F)F)n(C)c2=O)c(F)cc1Cl (racemic) [Compound 209] | 5 (Level 5: growth control rate is above 85%) |
| C#CCOC(=O)C(C)O/N=C/c1cc(-n2c(=O)cc(C(F)(F)F)n(C)c2=O)c(F)cc1Cl (racemic) [Compound 212] | 5 (Level 5: growth control rate is above 85%) |
| CC(O/N=C/c1cc(-n2c(=O)cc(C(F)(F)F)n(C)c2=O)c(F)cc1Cl)C(=O)OC1CCCC1 (racemic) [Compound 214] | 5 (Level 5: growth control rate is above 85%) |
| CC(O/N=C/c1cc(-n2c(=O)cc(C(F)(F)F)n(C)c2=O)c(F)cc1Cl)C(=O)OCCF (racemic) [Compound 216] | 5 (Level 5: growth control rate is above 85%) |
| CC(O/N=C/c1cc(-n2c(=O)cc(C(F)(F)F)n(C)c2=O)c(F)cc1Cl)C(=O)OCC(F)F (racemic) [Compound 217] | 5 (Level 5: growth control rate is above 85%) |
| CC(O/N=C/c1cc(-n2c(=O)cc(C(F)(F)F)n(C)c2=O)c(F)cc1Cl)C(=O)OCC(F)(F)F (racemic) [Compound 218] | 5 (Level 5: growth control rate is above 85%) |
| CC(O/N=C/c1cc(-n2c(=O)cc(C(F)(F)F)n(C)c2=O)c(F)cc1Cl)C(=O)OCC(C)(F)F (racemic) [Compound 220] | 5 (Level 5: growth control rate is above 85%) |

tested on: Setaria viridis; assay: Weeding effect in post-emergence stage; format: in vivo; details: Dose 15 g/ha; level of fresh weight growth control rate
In short: as §1

| Compound | Weeding effect in post-emergence stage, Setaria viridis |
| --- | --- |
| C=CCCOC(=O)C(C)O/N=C/c1cc(-n2c(=O)cc(C(F)(F)F)n(C)c2=O)c(F)cc1Cl (racemic) [Compound 209] | 5 (Level 5: growth control rate is above 85%) |
| C#CCOC(=O)C(C)O/N=C/c1cc(-n2c(=O)cc(C(F)(F)F)n(C)c2=O)c(F)cc1Cl (racemic) [Compound 212] | 5 (Level 5: growth control rate is above 85%) |
| CC(O/N=C/c1cc(-n2c(=O)cc(C(F)(F)F)n(C)c2=O)c(F)cc1Cl)C(=O)OC1CCCC1 (racemic) [Compound 214] | 5 (Level 5: growth control rate is above 85%) |
| CC(O/N=C/c1cc(-n2c(=O)cc(C(F)(F)F)n(C)c2=O)c(F)cc1Cl)C(=O)OCCF (racemic) [Compound 216] | 5 (Level 5: growth control rate is above 85%) |
| CC(O/N=C/c1cc(-n2c(=O)cc(C(F)(F)F)n(C)c2=O)c(F)cc1Cl)C(=O)OCC(F)F (racemic) [Compound 217] | 5 (Level 5: growth control rate is above 85%) |
| CC(O/N=C/c1cc(-n2c(=O)cc(C(F)(F)F)n(C)c2=O)c(F)cc1Cl)C(=O)OCC(F)(F)F (racemic) [Compound 218] | 5 (Level 5: growth control rate is above 85%) |
| CC(O/N=C/c1cc(-n2c(=O)cc(C(F)(F)F)n(C)c2=O)c(F)cc1Cl)C(=O)OCC(C)(F)F (racemic) [Compound 220] | 5 (Level 5: growth control rate is above 85%) |

tested on: Digitaria sanguinalis; assay: Weeding effect in post-emergence stage; format: in vivo; details: Dose 15 g/ha; level of fresh weight growth control rate
In short: as §1

| Compound | Weeding effect in post-emergence stage, Digitaria sanguinalis |
| --- | --- |
| C=CCCOC(=O)C(C)O/N=C/c1cc(-n2c(=O)cc(C(F)(F)F)n(C)c2=O)c(F)cc1Cl (racemic) [Compound 209] | 5 (Level 5: growth control rate is above 85%) |
| C#CCOC(=O)C(C)O/N=C/c1cc(-n2c(=O)cc(C(F)(F)F)n(C)c2=O)c(F)cc1Cl (racemic) [Compound 212] | 5 (Level 5: growth control rate is above 85%) |
| CC(O/N=C/c1cc(-n2c(=O)cc(C(F)(F)F)n(C)c2=O)c(F)cc1Cl)C(=O)OC1CCCC1 (racemic) [Compound 214] | 5 (Level 5: growth control rate is above 85%) |
| CC(O/N=C/c1cc(-n2c(=O)cc(C(F)(F)F)n(C)c2=O)c(F)cc1Cl)C(=O)OCCF (racemic) [Compound 216] | 5 (Level 5: growth control rate is above 85%) |
| CC(O/N=C/c1cc(-n2c(=O)cc(C(F)(F)F)n(C)c2=O)c(F)cc1Cl)C(=O)OCC(F)F (racemic) [Compound 217] | 5 (Level 5: growth control rate is above 85%) |
| CC(O/N=C/c1cc(-n2c(=O)cc(C(F)(F)F)n(C)c2=O)c(F)cc1Cl)C(=O)OCC(F)(F)F (racemic) [Compound 218] | 5 (Level 5: growth control rate is above 85%) |
| CC(O/N=C/c1cc(-n2c(=O)cc(C(F)(F)F)n(C)c2=O)c(F)cc1Cl)C(=O)OCC(C)(F)F (racemic) [Compound 220] | 5 (Level 5: growth control rate is above 85%) |

tested on: Eleusine indica; assay: Weeding effect in post-emergence stage; format: in vivo; details: Dose 15 g/ha; level of fresh weight growth control rate
In short: as §1

| Compound | Weeding effect in post-emergence stage, Eleusine indica |
| --- | --- |
| C=CCCOC(=O)C(C)O/N=C/c1cc(-n2c(=O)cc(C(F)(F)F)n(C)c2=O)c(F)cc1Cl (racemic) [Compound 209] | 5 (Level 5: growth control rate is above 85%) |
| C#CCOC(=O)C(C)O/N=C/c1cc(-n2c(=O)cc(C(F)(F)F)n(C)c2=O)c(F)cc1Cl (racemic) [Compound 212] | 5 (Level 5: growth control rate is above 85%) |
| CC(O/N=C/c1cc(-n2c(=O)cc(C(F)(F)F)n(C)c2=O)c(F)cc1Cl)C(=O)OC1CCCC1 (racemic) [Compound 214] | 5 (Level 5: growth control rate is above 85%) |
| CC(O/N=C/c1cc(-n2c(=O)cc(C(F)(F)F)n(C)c2=O)c(F)cc1Cl)C(=O)OCCF (racemic) [Compound 216] | 5 (Level 5: growth control rate is above 85%) |
| CC(O/N=C/c1cc(-n2c(=O)cc(C(F)(F)F)n(C)c2=O)c(F)cc1Cl)C(=O)OCC(F)F (racemic) [Compound 217] | 5 (Level 5: growth control rate is above 85%) |
| CC(O/N=C/c1cc(-n2c(=O)cc(C(F)(F)F)n(C)c2=O)c(F)cc1Cl)C(=O)OCC(F)(F)F (racemic) [Compound 218] | 5 (Level 5: growth control rate is above 85%) |
| CC(O/N=C/c1cc(-n2c(=O)cc(C(F)(F)F)n(C)c2=O)c(F)cc1Cl)C(=O)OCC(C)(F)F (racemic) [Compound 220] | 5 (Level 5: growth control rate is above 85%) |

tested on: Echinochloa crusgalli; assay: Weeding effect in post-emergence stage; format: in vivo; details: Dose 15 g/ha; level of fresh weight growth control rate
In short: as §1

| Compound | Weeding effect in post-emergence stage, Echinochloa crusgalli |
| --- | --- |
| C=CCCOC(=O)C(C)O/N=C/c1cc(-n2c(=O)cc(C(F)(F)F)n(C)c2=O)c(F)cc1Cl (racemic) [Compound 209] | 5 (Level 5: growth control rate is above 85%) |
| C#CCOC(=O)C(C)O/N=C/c1cc(-n2c(=O)cc(C(F)(F)F)n(C)c2=O)c(F)cc1Cl (racemic) [Compound 212] | 5 (Level 5: growth control rate is above 85%) |
| CC(O/N=C/c1cc(-n2c(=O)cc(C(F)(F)F)n(C)c2=O)c(F)cc1Cl)C(=O)OC1CCCC1 (racemic) [Compound 214] | 5 (Level 5: growth control rate is above 85%) |
| CC(O/N=C/c1cc(-n2c(=O)cc(C(F)(F)F)n(C)c2=O)c(F)cc1Cl)C(=O)OCCF (racemic) [Compound 216] | 5 (Level 5: growth control rate is above 85%) |
| CC(O/N=C/c1cc(-n2c(=O)cc(C(F)(F)F)n(C)c2=O)c(F)cc1Cl)C(=O)OCC(F)F (racemic) [Compound 217] | 5 (Level 5: growth control rate is above 85%) |
| CC(O/N=C/c1cc(-n2c(=O)cc(C(F)(F)F)n(C)c2=O)c(F)cc1Cl)C(=O)OCC(F)(F)F (racemic) [Compound 218] | 5 (Level 5: growth control rate is above 85%) |
| CC(O/N=C/c1cc(-n2c(=O)cc(C(F)(F)F)n(C)c2=O)c(F)cc1Cl)C(=O)OCC(C)(F)F (racemic) [Compound 220] | 5 (Level 5: growth control rate is above 85%) |
